# Reference: patent US20090304803A1, “Compositions and methods relating to target-specific photodynamic therapy” (The General Hospital Corporation, priority 2005, published 2009)
# Columns and labels:
# MCF7 cells = conditions: cited from earlier work
# HER2 = conditions: cited from earlier work
# ErbB3 receptor = target: T1, ErbB3 receptor (Homo sapiens, UniProt P21860); assay: ErbB3-specific aptamer localization in target and non-target cells, confocal microscopy; format: cell-based; conditions: 2 uM, 15 minutes at 4° C. then 20 minutes at 37° C.
# T1 construct: endogenous in cells; host or cells: OVCAR3 (target); PA-1 (non-expressing control)
# T1 sequence (P21860 20-1342): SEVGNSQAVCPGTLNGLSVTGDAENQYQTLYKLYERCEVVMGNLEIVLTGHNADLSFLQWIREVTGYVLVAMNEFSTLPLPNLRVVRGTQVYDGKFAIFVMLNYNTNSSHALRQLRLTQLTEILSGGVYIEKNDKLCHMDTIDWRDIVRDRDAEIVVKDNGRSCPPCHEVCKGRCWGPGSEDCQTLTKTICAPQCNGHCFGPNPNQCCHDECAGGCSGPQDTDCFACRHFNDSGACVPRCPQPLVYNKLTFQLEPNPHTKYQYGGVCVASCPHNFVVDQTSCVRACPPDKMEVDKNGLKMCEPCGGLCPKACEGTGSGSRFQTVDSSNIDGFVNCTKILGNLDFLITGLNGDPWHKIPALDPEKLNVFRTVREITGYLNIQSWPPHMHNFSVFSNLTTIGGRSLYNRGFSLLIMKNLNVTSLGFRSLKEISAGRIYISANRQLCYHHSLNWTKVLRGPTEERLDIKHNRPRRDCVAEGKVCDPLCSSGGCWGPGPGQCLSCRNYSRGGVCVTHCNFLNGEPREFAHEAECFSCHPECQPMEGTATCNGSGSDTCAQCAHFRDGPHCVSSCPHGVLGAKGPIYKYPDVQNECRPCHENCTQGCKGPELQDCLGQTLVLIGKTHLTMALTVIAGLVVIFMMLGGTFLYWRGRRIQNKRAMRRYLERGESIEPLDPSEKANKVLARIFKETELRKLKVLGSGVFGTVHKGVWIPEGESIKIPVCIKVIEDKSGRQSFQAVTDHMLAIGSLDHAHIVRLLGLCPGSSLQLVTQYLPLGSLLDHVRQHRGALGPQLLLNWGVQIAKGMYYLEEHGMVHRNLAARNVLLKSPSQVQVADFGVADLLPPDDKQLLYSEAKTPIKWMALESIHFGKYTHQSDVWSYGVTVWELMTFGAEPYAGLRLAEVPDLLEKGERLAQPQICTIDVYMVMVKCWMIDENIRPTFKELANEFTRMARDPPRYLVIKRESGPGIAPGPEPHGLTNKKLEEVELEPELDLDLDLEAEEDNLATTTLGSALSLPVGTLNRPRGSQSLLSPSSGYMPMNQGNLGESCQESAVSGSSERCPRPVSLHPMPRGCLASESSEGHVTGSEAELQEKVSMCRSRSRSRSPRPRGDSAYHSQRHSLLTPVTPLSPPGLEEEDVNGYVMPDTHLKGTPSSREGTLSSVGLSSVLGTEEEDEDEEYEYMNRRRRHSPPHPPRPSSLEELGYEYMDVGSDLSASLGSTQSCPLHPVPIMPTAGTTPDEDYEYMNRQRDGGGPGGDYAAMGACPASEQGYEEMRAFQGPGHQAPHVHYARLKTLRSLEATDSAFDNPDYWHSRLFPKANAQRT
# Method: Both ErbB3-expressing cells (OVCAR3) and non-expressing cells (PA-1) were incubated with the ErbB3-specific aptamer and the cells were imaged using a confocal microscope. OVCAR3 (target) and PA-1 (non-target) cells were incubated with 2 uM ErbB3 specific aptamer (tagged on the 5′ end with Fluoroscein) for 15 minutes at 4° C. and then for 20 minutes at 37° C. The cells were then imaged using a confocal laser scanning microscope with 488 nm excitation. The fluorescence was collected using a 515 nm long pass filter.
# [1] = water; cited from earlier work
Substance,hrg-induced growth response of MCF7 cells (MCF7 cells),hrg-dependent tyrosine phosphorylation of HER2 (HER2),"aptamer localization, OVCAR3 (target) versus PA-1 (non-target) (ErbB3 receptor)",solubility [1]
"ErbB3-specific aptamer: aptamer that recognizes the ErbB3 receptor, sequence from Chen et al., PNAS 2003; labeled at 5′ end with Fluoroscein (DNA CAGCGAAAGUUGCGUAUGGGUCACAUCGCAGGCACAUGUCAUCUGGGCG; 5' fluorescein label, chemistry of the aptamer otherwise not given here)",inhibited,inhibited,localized specifically to the OVCAR3 cell line,
chlorin e6 monoethylendiamine monamide [CMA],,,,soluble in water
